Results: ChEMBL document CHEMBL1201862, “PubChem BioAssay data set” (2004)
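Cells were grown in 96-well plates and exposed to each compound for 48 hours at five concentrations; endpoints were interpolated linearly between bracketing concentrations, or set to the highest concentration if not reached. GI50 is the concentration that inhibits growth by half.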 Activity calls are given as the source filed them. Cut-off read from the data, not from the text of the source: active = GI50 up to about 1.1 µM and inactive = higher.

Experiments:
Test in all cases: NCI anticancer screen, dose series, 48 h
MDA-MB-435 = tested on: MDA-MB-435
U-251 = tested on: U-251
KM12 = tested on: KM12
SF-268 = tested on: SF-268
PC-3 = tested on: PC-3
COLO 205 = tested on: COLO 205
NCI/ADR-RES = tested on: NCI/ADR-RES
SF-295 = tested on: SF-295
NCI-H522 = tested on: NCI-H522
SF-539 = tested on: SF-539
CAKI-1 = tested on: CAKI-1
A549 = tested on: A549
A498 = tested on: A498
HCT-116 = tested on: HCT-116
OVCAR-3 = tested on: OVCAR-3
Hs-578T = tested on: Hs-578T
SN12C = tested on: SN12C
T47D = tested on: T47D
NCI-H460 = tested on: NCI-H460
SNB-19 = tested on: SNB-19

Measured: GI50

Cc1cccc(/N=N/c2c(C)nn(C(=O)CC(=O)Nc3ccc(Cl)cc3)c2C)c1
inactive: MDA-MB-435 > 100 µM | U-251 61.5 µM | KM12 > 100 µM | SF-268 55.2 µM | PC-3 69 µM | COLO 205 > 100 µM | NCI/ADR-RES > 100 µM | SF-295 > 100 µM | NCI-H522 53.3 µM | SF-539 > 100 µM | CAKI-1 > 100 µM | A549 > 100 µM | A498 43.8 µM | HCT-116 67.1 µM | OVCAR-3 82.4 µM | Hs-578T 23.8 µM | SN12C > 100 µM | T47D 64.3 µM | NCI-H460 85.3 µM | SNB-19 80.5 µM

COC(=O)C1C(=O)C=CN([C@H](C)c2ccccc2)[C@@H]1Cc1ccc(OC)c(OCc2ccccc2)c1I (stereo not given in full)
inactive: MDA-MB-435 17 µM | U-251 17.5 µM | KM12 19.2 µM | SF-268 14.9 µM | PC-3 13.8 µM | COLO 205 14.9 µM | NCI/ADR-RES 11.1 µM | SF-295 16.9 µM | NCI-H522 13.6 µM | SF-539 19.4 µM | CAKI-1 22 µM | A549 15.6 µM | A498 14.5 µM | HCT-116 11.7 µM | OVCAR-3 14.6 µM | Hs-578T 17.5 µM | SN12C 14.3 µM | T47D 13.8 µM | NCI-H460 15.5 µM | SNB-19 15 µM

Cc1c(C)c2c(c(N)c1C#N)C(=O)N(CCN1CCNCC1)C2=O
inactive: MDA-MB-435 33.5 µM | U-251 43.7 µM | KM12 45.4 µM | SF-268 34.1 µM | PC-3 18.4 µM | COLO 205 22.5 µM | NCI/ADR-RES 33.4 µM | SF-295 31.5 µM | NCI-H522 17.9 µM | SF-539 32.8 µM | CAKI-1 42 µM | A549 29.6 µM | A498 22.2 µM | HCT-116 16.1 µM | OVCAR-3 33.3 µM | Hs-578T 28.8 µM | SN12C 32.5 µM | T47D 36.4 µM | NCI-H460 29.9 µM | SNB-19 49.3 µM

Clc1ccc(C(OCn2ccnc2)c2nc3ccccc3[nH]2)c(Cl)c1 (stereo not given)
inactive: MDA-MB-435 25.2 µM | U-251 31.4 µM | KM12 > 100 µM | SF-268 61.8 µM | PC-3 35.2 µM | COLO 205 34 µM | NCI/ADR-RES 56.2 µM | SF-295 29.6 µM | NCI-H522 43.1 µM | SF-539 35.8 µM | CAKI-1 87.3 µM | A549 43.4 µM | A498 38.2 µM | HCT-116 33.8 µM | OVCAR-3 23.5 µM | Hs-578T 59.3 µM | SN12C 61.4 µM | T47D 39.1 µM | NCI-H460 24.5 µM | SNB-19 89.3 µM

O=C1CC(c2cccc([N+](=O)[O-])c2)C2(C(=O)NC(=S)NC2=O)C(c2cccc([N+](=O)[O-])c2)C1 (stereo not given)
inactive: MDA-MB-435 23.5 µM | U-251 26.2 µM | KM12 26.6 µM | SF-268 15.9 µM | PC-3 51.6 µM | COLO 205 24.4 µM | NCI/ADR-RES > 100 µM | SF-295 34 µM | NCI-H522 30 µM | SF-539 40.6 µM | CAKI-1 12.9 µM | A549 31 µM | A498 > 100 µM | HCT-116 18.7 µM | OVCAR-3 35.2 µM | Hs-578T 22.8 µM | SN12C 19.9 µM | T47D 81.3 µM | NCI-H460 35.6 µM | SNB-19 21.8 µM
